Read-outs that look alike come from different tables or passages of the source.
System: A549 cells
Test: CDDP in vitro anticancer activity assay (MTT)
Format: cell-based, human
Method: A549 cells were placed in a 96-well culture plat at a density of 5×10^4 cells per well in 0.1 ml of growth medium and cultured for 24 hours. […] The percentage of cell viability is illustrated as the ratio of the absorbance of treated cells relative to the absorbance of non-treated cells.

[NH2][Pt]([NH2])([Cl])[Cl] [CDDP, Cisplatin]
IC50 (48 hours, read-out: IC50 Value, 48 hours): 13.6 µM
IC50 (72 hours, read-out: IC50 Value, 72 hours): 5.2 µM
